Source: patent publication US11344625B2, “Compositions having antifungal activity” (WAKO FILTER TECHNOLOGY Co., LTD., priority 2015, dated 2022)
In brackets after ≈: the same amount, converted by molar mass. Like-named read-outs stand apart in the source and are kept apart here.

Tests used:
[1] = test system: Trichophyton mentagrophytes TIMM 2789; assay: In vitro inhibition test for Trichophyton (pour-plate, agar); format: cell-based; details: for MIC: Trichophyton mentagrophytes, read-out: MIC (minimum inhibitory concentration)
Malassezia pachydermatis = assay: Anti-Malassezia fungal activity, agar dilution method; format: cell-based; details: for Determination (mycelial growth rate taking control as 100): 7 days at 32° C.
Experimental: 100 μL lots of the test bacterial solution adjusted to McFarland 1.0 were coated over this Agar plate and were cultured for seven days at 32° C. Thereafter, the growth rate of the bacteria thereon were compared with a control (i.e., an MLNA culture medium containing no test additives) and their properties were determined. […] Note that if the mycelial growth rate of the control is taken as 100%, then when the mycelial growth rate in the test sample is 0%, this is determined to be [−], while if the mycelial growth rate in the test sample is 1 to 20%, this is determined to be [+], and if the mycelial growth rate in the test sample is 21 to 90%, this is determined to be […].

[2] = test system: Trichophyton mentagrophytes TIMM 2789; assay: In vitro inhibition test for Trichophyton (pour-plate, agar); format: cell-based; details: cultured at 28° C.
Experimental: A clinical isolate, Trichophyton mentagrophytes TIMM 2789, held by the Teikyo University Medical Mycology Research Center was used as the Trichophyton. For the preculture process, this Trichophyton was extracted from low-temperature silica stock one week prior to the day of the test, and was cultured on a Sabouraud Dextrose Agar culture plate containing 50 μg/ml of chloramphenicol and 500 μg/ml of cycloheximide (such that these components were diluted to 1/10). This culturing was performed for one week at 28° C., and the bacteria were collected and used on the day of the test. The setting of the Trichophyton bacterial count was achieved by transferring the collected bacteria using a pour-plate method to a culture medium such that the final concentration was 10^3 cells/ml. In addition, the respective test samples were also transferred to a culture medium using a pour-plate method such that the final concentrations thereof were set to those shown in the table below. […] In the preparation, 1 ml of each test sample solution and 24 ml of RPMI-1640 culture medium were blended together, and prepared in a sterilized plastic Petri dish. The Trichophyton inoculation culture medium that was prepared in this manner was then cultured at 28° C. for four days, and the growth inhibitory effect of the mycelia after this culturing was observed and the properties thereof determined. The determinations were made both visually, and in the case of turbidity being present, by comparing the growth condition of the mycelia with a control (containing no test sample additives) via photomicrograph (at magnification ×40).
Results for the negativity and positivity of the bacteria obtained from each test sample are shown below in Table 6. Note that if the mycelial growth rate of the control is taken as 100%, then when the mycelial growth rate in the test sample is 0%, this is determined to be [−], while if the mycelial growth rate in the test sample is 1 to 20%, this is determined to be [+], and if the mycelial growth rate in the test sample is 21 to 90%, this is determined to be […]. Note that FIG. 15 and FIG. 16 are photographs showing states 7 days after colony formation of the Trichophyton in each test sample.

[3] = test system: Candida albicans TIMM 1768; assay: Inhibition test for Candida mycelial growth (crystal violet, checkerboard for combinations); format: cell-based; details: for IC (at a 70% growth inhibitory concentration): checkerboard; for IC 70 (70% growth inhibitory concentration): alone, Candida mycelial growth; for improvement effect in the anticandidal activity against Candida mycelial growth: test reagent alone, concentration series
Experimental: A clinical isolate, Candida albicans TIMM 1768, held by the Teikyo University Medical Mycology Research Center was used as the Candida. This Candida was cultured for 20 hours at 37° C. on a Sabouraud Dextrose Agar culture plate. The multiplied bacterial cells were recovered, and then suspended in sterilized water so as to form Candida solutions whose bacterial count was adjusted to 5×10^3 cells/ml. Each sample was dissolved in advance in DMSO (dimethyl sulfoxide) so as to match the final concentration, and was then added to a 1/3 RPMI-1640 culture medium containing 2% calf serum so as to form sample solutions. 100 μL of both the sample solution (having a DSMO concentration in the culture medium of 0.5%) and the Candida bacterial solution were then placed respectively in each well of a 96-hole microplate (manufactured by Sumitomo Bakelite, Tokyo), and these were then cultured for three hours at 37° C. in a 5% carbon dioxide gas atmosphere. After three hours, the solutions in each well were discarded and the wells were cleaned. Subsequently, 200 μL of 1/3 RPMI-1640 was newly added to each well, and culturing was performed for 16 hours at 37° C. in a presence of 5% carbon dioxide gas. Once this culturing had ended, the solutions in each well were removed by suction, and the wells were washed using physiological saline. 200 μL of 70% ethanol was then injected so as to sterilize the Candida. After the ethanol had been removed, and the wells washed with tap water, 100 μL of a dye solution (i.e., a 0.1 M phosphate buffer containing 0.01% of dissolved crystal violet solution) was injected and left standing for 15 minutes. As a result, the Candida mycelia adhering to the surface of the wells were dyed.
After the wells were then washed with tap water so as to remove excess dye solution, 150 μL of […] containing 0.04 NHCL, and 50 μL of a 0.25% sodium dodecyl sulfate solution were then injected so as to free the coloring adhering to the bacterial cells. After the coloring had been freed, the plate was set in a multiscan photometer (i.e., a Multiskan FC, manufactured by Thermo Fisher Scientific Inc.), and the OD at 620 nm was measured in each well. The growth inhibition rate was then determined using the following formula. Growth inhibition rate (%)=(1−sample OD/subject OD)×100
The anticandidal activity synergistic effect provided by the combined use was evaluated using a checkerboard method. […] The experiment conditions and the measurement method and the like were the same as those employed for the mycelial growth test (i.e., Example 1).
The anticandidal activity synergistic effect obtained from a combined use was evaluated using a checkerboard method in the same way as in Example 2. […] The experiment conditions and the measurement method and the like were the same as those employed for the mycelial growth test (i.e., Example 1).
The anticandidal activity effect obtained from each test reagent was evaluated using a checkerboard method in the same way as in Example 2. […] The experiment conditions and the measurement method and the like were the same as those employed for the mycelial growth test (i.e., Example 1).

[4] = test system: Candida albicans TIMM 1768; assay: Oral candidiasis model in mice; format: in vivo, ICR strain mice; details: day 2
Experimental: Using ICR strain mice (males, 6 weeks old, Charles River Laboratories, Japan) as the experimental animals, these mice were subcutaneously injected with 100 mg/kg of prednisolone as an immunosuppressant on the day prior to the candidiasis inoculation. Additionally, tap water containing 15 mg/ml of chlortetracycline hydrochloride was made freely available starting from that same day. On the day of the innoculation, in order to keep the mice in a resting state, 14.4 mg/kg of chlorpromazine hydrochloride (manufactured by Wako Pure Chemical Industries, Ltd.) was intramuscularly administered in advance. The bacterial strain and culturing method that were used were the same as in the Examples as far as the previous paragraph, and the multiplied bacterial cells were suspended in an RPMI-1640 culture medium containing 2% calf serum so as to form a bacterial solution whose bacterial count was adjusted to 2×10^8 cells/ml. […] Two days after the inoculation the mouse was euthanized, and the tongue symptom score was evaluated in accordance with a reference. […] A fixed quantity of this was then coated onto a Candida GS agar plate, and was cultured at 37° C. for 20 hours. The number of colonies appearing after this time was then measured. The number of viable Candida bacteria CFU (colony forming units) recovered from the relevant individuals was then calculated from the number of colonies.

[5] = LYZOX used in combination with terpinen-4-ol
[6] = used in combination with decanoic acid
[7] = used in combination with terpinen-4-ol

Row | Compound | Determination (mycelial growth rate taking control as 100) (Malassezia pachydermatis; 0.1 mg/ml) | Determination (mycelial growth rate taking control as 100) (Malassezia pachydermatis; 1 mg/ml) | Determination (mycelial growth rate taking control as 100) ([2]; 1 mg/ml) | IC 70 (70% growth inhibitory concentration) [3] | IC (at a 70% growth inhibitory concentration) [3, 5] | Determination (mycelial growth rate taking control as 100) (Malassezia pachydermatis; 0.05 mg/ml) | Determination (mycelial growth rate taking control as 100) (Malassezia pachydermatis; 0.5 mg/ml) | Determination (mycelial growth rate taking control as 100) ([2]; 2.5 mg/ml) | Determination (mycelial growth rate taking control as 100) ([2]; 5 mg/ml) | improvement effect in the anticandidal activity against Candida mycelial growth [3] | improvement effect in the anticandidal activity from combined usage against Candida mycelial growth [3, 6] | improvement effect in the anticandidal activity from combined usage against Candida mycelial growth [3, 7] | other results
1 | CCCCCCCCCC(=O)O [Decanoic acid, decanoic acid] | +++ (91 to 100%) | +++ (91 to 100%) | ++ (21 to 90%) | 480 µg/mL |  |  |  |  |  |  |  |  | MIC ([1]; TIMM2789, LYZOX and decanoic acid used in combination): 200 µg/mL; MIC ([1]; TIMM2789, used alone): 1500 µg/mL (≈ 8.71 mM); Determination (mycelial growth rate taking control as 100) (Malassezia pachydermatis; 0.2 mg/ml): +++ (91 to 100%); Determination (mycelial growth rate taking control as 100) (Malassezia pachydermatis; 2 mg/ml): + (1 to 20%); Determination (mycelial growth rate taking control as 100) ([2]; 0.8 mg/ml): +++ (91 to 100%); Determination (mycelial growth rate taking control as 100) ([2]; 0.9 mg/ml): +++ (91 to 100%); Determination (mycelial growth rate taking control as 100) ([2]; 1.5 mg/ml): − (0%); IC (at a 70% growth inhibitory concentration) ([3]; LYZOX used in combination with capric acid (decanoic acid)): 25 µg/mL
2 | CC1=CCC(O)(C(C)C)CC1 (stereo not shown) [Terpinen-4-ol, terpinen-4-ol] |  |  |  | 1900 µg/mL | 280 µg/mL |  |  |  |  |  |  |  | viable bacteria count recovered from the oral cavity ([4]; T 10 mg/ml on tongue dorsum 3, 24, 27 h after inoculation): reduction in the viable bacterial count
3 | LYZOX: complex formed by bonding lysozyme to chitosan (14000 Da) via a Maillard reaction; LYZOX is a registered trademark | ++ (21 to 90%) | − (0%) | +++ (91 to 100%) | 193 µg/mL | 60 µg/mL | +++ (91 to 100%) | − (0%) | ++ (21 to 90%) | ++ (21 to 90%) | improvement effect in the anticandidal activity against Candida mycelial growth was visible | remarkable improvement effect | remarkable improvement effect | MIC (minimum inhibitory concentration) ([1]; LYZOX and decanoic acid used in combination): 100 µg/mL; MIC (minimum inhibitory concentration) ([1]; used alone): 10000 µg/mL; tongue symptom score ([4]; L 20 mg/ml on tongue dorsum 3, 24, 27 h after inoculation): remarkable improvement effect; anti-Malassezia fungal activity against Malassezia fungi (Malassezia pachydermatis; summary of agar dilution and disk experiments): exhibited anti-Malassezia fungal activity; Determination (mycelial growth rate taking control as 100) ([2]; 10 mg/ml): − (0%); Candida growth rate ([3]; 250 μg/ml): 0.9%
4 | Lysozyme: simple lysozyme, unbonded component of the complex |  |  |  |  |  | +++ (91 to 100%) | +++ (91 to 100%) | +++ (91 to 100%) | ++ (21 to 90%) | no improvement effect | no improvement effect | no improvement effect | 
